# Measured values: patent US11319298B2 (Merck Sharp & Dohme Corp., priority 2016, dated 2022)
# Target: T1, human M4 muscarinic acetylcholine receptor (Homo sapiens, UniProt P08173)
# T1 construct: expressed in transfected cells; host or cells: CHO-K1
# T1 sequence (P08173 1-479): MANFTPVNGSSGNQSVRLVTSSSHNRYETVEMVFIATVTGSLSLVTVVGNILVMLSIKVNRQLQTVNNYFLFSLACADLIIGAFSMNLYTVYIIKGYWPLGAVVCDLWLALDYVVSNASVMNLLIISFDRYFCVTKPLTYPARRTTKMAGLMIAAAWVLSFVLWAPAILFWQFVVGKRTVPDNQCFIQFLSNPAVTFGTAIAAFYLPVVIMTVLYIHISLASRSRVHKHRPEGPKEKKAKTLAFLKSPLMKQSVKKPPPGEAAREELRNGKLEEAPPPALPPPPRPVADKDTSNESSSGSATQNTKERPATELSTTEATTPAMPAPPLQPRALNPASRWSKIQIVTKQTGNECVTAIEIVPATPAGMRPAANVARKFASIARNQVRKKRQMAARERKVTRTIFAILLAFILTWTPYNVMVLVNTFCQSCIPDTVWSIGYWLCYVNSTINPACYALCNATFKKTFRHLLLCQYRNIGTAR
# Assay: human FLIPR-based M4 PAM assay, CHO-K1 cells stably transfected with human M4 receptor and chimeric G-protein Gαqi5
# Assay type: cell-based
# Settings: inflection point (IP) of dose response curve; acetylcholine added at 20% of maximum response; CHO-K1 human M4/Gαqi5, FLIPR Tetra
# Protocol: In a typical experiment the M4 muscarinic acetylcholine receptor modulating activity of the compounds of the present invention was determined in accordance with the following experimental method. CHO-K1 cells stably transfected with human M4 receptor and chimeric G-protein Gαqi5 (Coward P, et al., Analytical Biochemistry, 270:242-248 (1999)) are thawed from liquid N2 storage, resuspended in growth medium, plated in black, clear bottom 384 well plates, and incubated 16-20 hours at 37° C., 5% CO2. On the day of assay, growth medium is removed, the cells are washed 2 times with wash buffer, and cells are incubated in dye loading buffer at 37° C., 5% CO2 for ˜1 hour. Following dye loading the cell plates are placed in a FLIPR Tetra instrument and while monitoring dye fluorescence (excitation […]), 10 uL of test substance at increasing concentrations is added, and fluorescence values are recorded for 4 min. Next, 10 uL of acetylcholine is added (final concentration calculated so as to achieve 20% of the maximum acetycholine response), and the fluorescence reading is continued for 3.5 min. In some cases, a third addition of acetylcholine (final concentration calculated to achieve 70% of the maximal acetylcholine response) is performed. The resulting dose response curves are fit to a 4 parameter logistic equation and the final result is determined as the inflection point (IP) of the curve
# CHO-K1 cells stably transfected with human M4 receptor and chimeric G-protein Gαqi5 are thawed from liquid N2 storage, resuspended in growth medium, plated in black, clear bottom 384 well plates, and incubated 16-20 hours at 37° C., 5% CO2.
# On the day of assay, growth medium is removed, the cells are washed 2 times with wash buffer, and cells are incubated in dye loading buffer at 37° C., 5% CO2 for ˜1 h. Following dye loading the cell plates are placed in a FLIPR Tetra instrument and while monitoring dye fluorescence ([…]), 10 uL of test substance at increasing concentrations is added, and fluorescence values are recorded for 4 min. Next, 10 uL of acetylcholine is added (final concentration calculated so as to achieve 20% of the maximum acetycholine response), and the fluorescence reading is continued for 3.5 min. In some cases, a third addition of acetylcholine (final concentration calculated to achieve 70% of the maximal acetylcholine response) is performed.
row,EC50 [nM],SMILES
1,94,"COc1ccc(OC2CCN(c3nc(C)nc(Cl)c3C)CC2)cc1 [Example 62, 4-chloro-6-(4-(4-methoxyphenoxy)piperidin-1-yl)-2,5-dimethylpyrimidine]"
2,99,Cc1c(Cl)nc(CO)nc1N1CCC(Oc2ccc3nn(C)cc3c2)CC1 [Example 63]
3,99,"Cc1ncc(C)c(N2CCC(Oc3ccc(OCCO)nc3)CC2)n1 [Example 64, 2-((5-((1-(2,5-dimethylpyrimidin-4-yl)piperidin-4-yl)oxy)pyridin-2-yl)oxy)ethan-1-ol]"
4,100,"COc1ncc(OC2CCN(c3nc(CO)nc(Cl)c3C)CC2)cc1Cl [Example 65, (4-chloro-6-(4-((5-chloro-6-methoxypyridin-3-yl)oxy)piperidin-1-yl)-5-methylpyrimidin-2-yl)methanol]"
5,106,"Cc1c(Cl)ncnc1N1CCC(Oc2ccc3nn(C)cc3c2)CC1 [Example 66, 5-((1-(6-chloro-5-methylpyrimidin-4-yl)piperidin-4-yl)oxy)-2-methyl-2H-indazole]"
6,108,"Cc1nc(Cl)c(C)c(N2CCC(Oc3ccc4nn(C)cc4c3)CC2)n1 [Example 67, 5-((1-(6-chloro-2,5-dimethypyrimidin-4-yl)piperidin-4-yl)oxy)-2-methyl-2H-indazole]"
7,126,"COc1ccc(OC2CCN(c3nc(CO)nc(Cl)c3C)CC2)cn1 [Example 68, (4-chloro-6-(4-((6-methoxypyridin-3-yl)oxy)piperidin-1-yl)-5-methylpyrimidin-2-yl)methanol]"
8,126,"COc1ccc(OC2CCN(c3nc(C)ncc3C)CC2)cc1 [Example 69, 4-(4-(4-methoxyphenoxy)piperidin-1-yl)-2,5-dimethylpyrimidine]"
9,129,"COC(=O)c1cc(C)c(N2CCC(Oc3ccc(OC)nc3)CC2)nn1 [Example 70, methyl 6-(4-((6-methoxypyridin-3-yl)oxy)piperidin-1-yl)-5-methylpyridazine-3-carboxylate]"
10,135,"Cc1ncc(C)c(N2CC[C@@H](Oc3cccc(C#N)c3)[C@H](F)C2)n1 [Example 71, 3-(((3R,4R)-1-(2,5-dimethylpyrimidin-4-yl)-3-fluoropiperidin-4-yl)oxy)benzonitrile]"
11,140,"Cc1ncc(C)c(N2CCC(Oc3ccc(OCC(C)(C)N)nc3)CC2)n1 [Example 72, 1-((5-((1-(2,5-dimethylpyrimidin-4-yl)piperidin-4-yl)oxy)pyridin-2-yl)oxy)-2-methylpropan-2-amine]"
12,141,"COc1ccc(OC2CCN(c3nc(S(C)(=O)=O)nc(Cl)c3C)CC2)cc1 [Example 73, 4-chloro-6-(4-(4-methoxyphenoxy)piperidin-1-yl)-5-methyl-2-(methylsulfonyl)pyrimidine]"
13,155,"COc1ncc(OC2CCN(c3nc(C)ncc3C)CC2)cc1F [Example 74, 4-(4-((5-fluoro-6-methoxypyridin-3-yl)oxy)piperidin-1-yl)-2,5-dimethylpyrimidine]"
14,156,"Cc1ncc(C)c(N2CC[C@@H](Oc3cccc(C#N)c3)[C@@H](F)C2)n1 [Example 75, 3-(((3S,4R)-1-(2,5-dimethylpyrimidin-4-yl)-3-fluoropiperidin-4-yl)oxy)benzonitrile]"
15,172,"Cc1ncc(C)c(N2CCC(Oc3cccc(C#N)c3)CC2)n1 [Example 76, 3-((1-(2,5-dimethylpyrimidin-4-yl)piperidin-4-yl)oxy)benzonitrile]"
16,177,"COc1ccc(OC2CCN(c3nc(Cl)nc(Cl)c3C)CC2)cc1 [Example 77, 2,4-dichloro-6-(4-(4-methoxyphenoxy)piperidin-1-yl)-5-methylpyrimidine]"

row,EC50 [nM],SMILES
1,187,"COCc1nc(Cl)c(C)c(N2CCC(Oc3ccc(OC)nc3)CC2)n1 [Example 78, 4-chloro-2-(methoxymethyl)-6-(4-((6-methoxypyridin-3-yl)oxy)piperidin-1-yl)-5-methylpyrimidine]"
2,235,"COc1ccc(OC2CCN(c3nc(C)ncc3C)CC2)cn1 [Example 79, 4-(4-((6-methoxypyridin-3-yl)oxy)piperidin-1-yl)-2,5-dimethylpyrimidine]"
3,257,"Cc1ncc(C)c(N2CCC(Oc3ccc4cn[nH]c4c3)CC2)n1 [Example 80, 6-((1-(2,5-dimethylpyrimidin-4-yl)piperidin-4-yl)oxy)-1H-indazole]"
4,293,"Cc1ncc(C)c(N2CC[C@H](Oc3cccc(C#N)c3)[C@H](F)C2)n1 [Example 81, 3-(((3R,4S)-1-(2,5-dimethylpyrimidin-4-yl)-3-fluoropiperidin-4-yl)oxy)benzonitrile]"
5,385,"COc1ccc(OC2CCN(c3nc(SC)nc(Cl)c3C)CC2)cn1 [Example 82, 4-chloro-6-(4-((6-methoxypyridin-3-yl)oxy)piperidin-1-yl)-5-methyl-2-(methylthio)pyrimidine]"
6,475,"Cc1ncc(C)c(N2CC[C@H](Oc3cccc(C#N)c3)[C@@H](F)C2)n1 [Example 83, 3-(((3S,4S)-1-(2,5-dimethylpyrimidin-4-yl)-3-fluoropiperidin-4-yl)oxy)benzonitrile]"
7,574,"COc1ccc(O[C@@H]2CCN(c3nc(C)ncc3C)C[C@@H]2F)cn1 [Example 84, 4-((3S,4R)-3-fluoro-4-((6-methoxypyridin-3-yl)oxy)piperidin-1-yl)-2,5-dimethylpyrimidine]"
8,1150,"COc1ccc(OC2CCN(c3nc(SC)ncc3C#N)CC2)cn1 [Example 85, 4-(4-((6-methoxypyridin-3-yl)oxy)piperidin-1-yl)-2-(methylthio)pyrimidine-5-carbonitrile]"
9,1170,"COc1ccc(OC2CCN(c3nnc(C)c(C)c3C#N)CC2)cn1 [Example 86, 3-(4-((6-methoxypyridin-3-yl)oxy)piperidin-1-yl)-5,6-dimethylpyridazine-4-carbonitrile]"
10,1500,"COc1ccc(OC2CCN(c3nc(C)nc(N)c3C)CC2)cn1 [Example 87, 6-(4-((6-methoxypyridin-3-yl)oxy)piperidin-1-yl)-2,5-dimethylpyrimidin-4-amine]"
11,1530,"COc1ncc(C#N)c(N2CCC(Oc3cccc(C#N)c3)CC2)n1 [Example 88, 4-(4-(3-cyanophenoxy)piperidin-1-yl)-2-methoxypyrimidine-5-carbonitrile]"
12,1610,"COc1ccc(OC2CCN(c3ncnc(N)c3C)CC2)cn1 [Example 89, 6-(4-((6-methoxypyridin-3-yl)oxy)piperidin-1-yl)-5-methylpyrimidin-4-amine]"
13,20,"Cc1c(Cl)nc(CO)nc1N1CC[C@@H](Oc2ccc3[nH]ncc3c2)[C@@H](F)C1 [Example 90, (4-((3S,4R)-4-((1H-indazol-5-yl)oxy)-3-fluoropiperidin-1-yl)-6-chloro-5-methylpyrimidin-2-yl)methanol]"
14,27,"Cc1c(Cl)nc(CO)nc1N1CCC(Oc2ccc3c(c2)C(=O)CO3)CC1 [Example 91, 5-((1-(6-chloro-2-(hydroxymethyl)-5-methylpyrimidin-4-yl)piperidin-4-yl)oxy)benzofuran-3(2H)-one]"
15,29,"Cc1c(Cl)nc(CO)nc1N1CCC(Oc2ccc3c(c2)OCCO3)CC1 [Example 92, (4-chloro-6-(4-((2,3-dihydrobenzo[b][1,4]dioxin-6-yl)oxy)piperidin-1-yl)-5-methylpyrimidin-2-yl)methanol]"
